Source: patent publication US20170172955A1, “Treatment of Mixed Dyslipidemia” (priority 2015, published 2017)
Where two headings read alike, the source gives them in different places.

Legend:
CYP3A4 = CYP3A4 (Homo sapiens, UniProt P08684); experiment: biochemical
Description: Human livers, HLM141, HLM143, and HLM144 were selected from the University of Washington Human Liver Bank for this study. […] The actual concentrations used for each of the other probes are specified below. […] The seven isoforms and the metabolic pathway of each of the probes used to monitor specific isoform activity are listed below.
CYP3A4: The 10-hydroxylation of (R)-warfarin (0.5 mM). The reaction is monitored by quantitative GC/MS using 10-hydroxywarfarin-(d5-phenyl) as the internal standard.

[1] = tested on: STAM model of non-alcoholic steatohepatitis (NASH); details: for Sirius Red positive area (mean ± SD) / NAFLD Activity score, NAS (mean ± SD) / Fasting blood glucose (mean ± SD) / Plasma insulin (mean ± SD) / Liver hydroxyl-proline (mean ± SD) / Liver triglyceride (mean ± SD) / Non-fasting blood glucose (mean ± SD) / Plasma ALT (mean ± SD) / Plasma AST (mean ± SD) / Plasma ketone body (mean ± SD): STAM mice; for Fasting blood glucose (mean ± SD) / Plasma insulin (mean ± SD): Day 18, 8 hours of fasting; for Liver hydroxyl-proline (mean ± SD) / Liver triglyceride (mean ± SD) / Non-fasting blood glucose (mean ± SD) / Plasma ALT (mean ± SD) / Plasma AST (mean ± SD) / Plasma ketone body (mean ± SD): termination (Day 21)
Description: Telmisartan (Micardis®) was purchased from Boehringer Ingelheim GmbH (Germany) and dissolved in pure water.
Telmisartan was administered at a dose of 10 mg/kg once daily.
Measurement of whole blood and plasma biochemistry: Eight-hour fasting blood samples were collected from facial vein at 3 days prior to termination.
Eight-hour fasting blood glucose was measured in whole blood using Life Check (EIDIA Co. Ltd., Japan). For plasma biochemistry, eight-hour fasting blood was collected in polypropylene tubes with anticoagulant (Novo-Heparin, Mochida Pharmaceutical, Japan) and centrifuged at 1,000×g for 15 minutes at 4° C. The supernatant was collected and stored at −80° C. until use. Plasma insulin levels were quantified by Ultra Sensitive Mouse Insulin ELISA kit (Morinaga Institute of Biological Science, Inc., Japan).
On the day of termination, non-fasting blood glucose was measured in whole blood using Life Check. For plasma biochemistry, non-fasting blood was collected in polypropylene tubes with anticoagulant (Novo-Heparin) and centrifuged at 1,000×g for 15 minutes at 4° C. The supernatant was collected and stored at −80° C. until use. Plasma ALT, AST, ALP, GGT, BUN, creatinine and total bilirubin levels were measured by FUJI DRI-CHEM 7000 (Fujifilm Corporation, Japan). Plasma ketone body levels were quantified by EnzyChrom™ Ketone Body Assay Kit (BioAssay Systems, USA). […]
Histological analyses: For HE staining, sections were cut from paraffin blocks of liver tissue prefixed in Bouin's solution and stained with Lillie-Mayer's Hematoxylin (Muto Pure Chemicals Co., Ltd., Japan) and eosin solution (Wako Pure Chemical Industries). […] To visualize collagen deposition, Bouin's fixed liver sections were stained using picro-Sirius red solution (Waldeck, Germany). […]
Statistical analyses were performed using Bonferroni Multiple Comparison Test on GraphPad Prism 6 (GraphPad Software Inc., USA). […] Results were expressed as mean±SD.
The viability, clinical signs and behavior were monitored daily. Body weight was recorded before the treatment. […] The animals were sacrificed by exsanguination through direct cardiac puncture under isoflurane anesthesia (Pfizer Inc.) at 9 weeks of age.

plasma fibrinogen = experiment: Fibrinogen levels in rats (electro immunoassay); type: in vivo, rat; details: male Sprague-Dawley rats
Description: Fifty-Six male Sprague-Dawley rats were obtained from Charles River Laboratories. All animals were allowed normal rat chow (Ralston-Purina) and water ad libitum in temperature-controlled rooms, under a 12-hour light, 12-hour dark cycle beginning with lights on at 6 AM. Rats were distributed to 7 groups of 8 rats per group. […] Control animals received vehicle alone. […] CI-719 is gemfibrozil. […] The plasma fibrinogen plasma levels were determined by electro immunoassay. […] Data are shown in FIG. 12 as mean±SEM of as percent of control fibrinogen levels. *p<0.001, two-sided unpaired t-test, compared to control.

[2] = Musculoskeletal adverse events, study A4141001
[3] = gemcabene 30 mg/kg PO QD, n = 8
[4] = gemcabene 100 mg/kg PO QD, n = 8
[5] = gemcabene 300 mg/kg PO QD, n = 8
[6] = study A4141001, patient type IIa
[7] = study A4141001, patient type IIa + IIb
[8] = study A4141001, patient type IIb

Chain of CYP3A4 (P08684 whole entry, canonical isoform): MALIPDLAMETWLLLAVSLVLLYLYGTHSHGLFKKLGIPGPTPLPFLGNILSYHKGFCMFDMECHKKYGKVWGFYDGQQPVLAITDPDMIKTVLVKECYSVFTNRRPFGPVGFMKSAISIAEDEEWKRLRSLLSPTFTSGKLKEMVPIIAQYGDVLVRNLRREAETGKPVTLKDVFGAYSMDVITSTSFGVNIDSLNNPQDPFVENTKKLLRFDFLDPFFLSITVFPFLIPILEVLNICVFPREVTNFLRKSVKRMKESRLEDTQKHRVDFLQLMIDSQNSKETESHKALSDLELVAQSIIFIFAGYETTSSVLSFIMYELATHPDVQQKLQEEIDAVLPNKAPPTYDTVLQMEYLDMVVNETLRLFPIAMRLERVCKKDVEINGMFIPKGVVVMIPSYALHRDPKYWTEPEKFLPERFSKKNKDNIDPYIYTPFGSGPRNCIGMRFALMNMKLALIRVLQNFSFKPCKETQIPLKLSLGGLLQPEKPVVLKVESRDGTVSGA

IC50 (CYP3A4): > 1.5 mM
IC50 (CYP3A4; human, microsomes): > 1.5 mM
SMILES: CC(C)(CCCCOCCCCC(C)(C)C(=O)O)C(=O)O [Gemcabene, 6,6′-oxybis(2,2-dimethylhexanoic acid)]
Sirius Red positive area (mean ± SD) ([1]; gemcabene 30 mg/kg PO QD 6-9 wks): 0.56 ± 0.18%
NAFLD Activity score, NAS (mean ± SD) ([1]; gemcabene 30 mg/kg PO QD 6-9 wks, n = 8): 3.4 ± 1.1
Fasting blood glucose (mean ± SD) ([1]; gemcabene 30 mg/kg PO QD): 437 ± 42 mg/dL
Plasma insulin (mean ± SD) ([1]; gemcabene 30 mg/kg PO QD): 0.13 ± 0.04 ng/mL
Liver hydroxyl-proline (mean ± SD) ([1]; gemcabene 30 mg/kg PO QD): 0.66 ± 0.12 μg/mg total protein
Liver triglyceride (mean ± SD) ([1]; gemcabene 30 mg/kg PO QD): 49.2 ± 8.6 mg/g liver
Non-fasting blood glucose (mean ± SD) ([1]; gemcabene 30 mg/kg PO QD): 607 ± 48 mg/dL
Plasma ALT (mean ± SD) ([1]; gemcabene 30 mg/kg PO QD): 41 ± 15 U/L
Plasma AST (mean ± SD) ([1]; gemcabene 30 mg/kg PO QD): 100 ± 44 U/L
Plasma ketone body (mean ± SD) ([1]; gemcabene 30 mg/kg PO QD): 9.43 ± 2.35 mM
Sirius Red positive area (mean ± SD) ([1]; gemcabene 100 mg/kg PO QD 6-9 wks): 0.53 ± 0.18%
NAFLD Activity score, NAS (mean ± SD) ([1]; gemcabene 100 mg/kg PO QD 6-9 wks, n = 8): 3.6 ± 1.4
Fasting blood glucose (mean ± SD) ([1]; gemcabene 100 mg/kg PO QD): 441 ± 46 mg/dL
Plasma insulin (mean ± SD) ([1]; gemcabene 100 mg/kg PO QD): 0.17 ± 0.06 ng/mL
Liver hydroxyl-proline (mean ± SD) ([1]; gemcabene 100 mg/kg PO QD): 0.74 ± 0.38 μg/mg total protein
Liver triglyceride (mean ± SD) ([1]; gemcabene 100 mg/kg PO QD): 58.4 ± 14.5 mg/g liver
Non-fasting blood glucose (mean ± SD) ([1]; gemcabene 100 mg/kg PO QD): 653 ± 53 mg/dL
Plasma ALT (mean ± SD) ([1]; gemcabene 100 mg/kg PO QD): 27 ± 7 U/L
Plasma AST (mean ± SD) ([1]; gemcabene 100 mg/kg PO QD): 88 ± 32 U/L
Plasma ketone body (mean ± SD) ([1]; gemcabene 100 mg/kg PO QD): 5.75 ± 3.24 mM
Sirius Red positive area (mean ± SD) ([1]; gemcabene 300 mg/kg PO QD 6-9 wks): 0.59 ± 0.16%
NAFLD Activity score, NAS (mean ± SD) ([1]; gemcabene 300 mg/kg PO QD 6-9 wks, n = 8): 2.5 ± 0.8
Fasting blood glucose (mean ± SD) ([1]; gemcabene 300 mg/kg PO QD): 407 ± 15 mg/dL
Plasma insulin (mean ± SD) ([1]; gemcabene 300 mg/kg PO QD): 0.13 ± 0.04 ng/mL
Liver hydroxyl-proline (mean ± SD) ([1]; gemcabene 300 mg/kg PO QD): 0.70 ± 0.10 μg/mg total protein
Liver triglyceride (mean ± SD) ([1]; gemcabene 300 mg/kg PO QD): 56.0 ± 13.9 mg/g liver
Non-fasting blood glucose (mean ± SD) ([1]; gemcabene 300 mg/kg PO QD): 638 ± 63 mg/dL
Plasma ALT (mean ± SD) ([1]; gemcabene 300 mg/kg PO QD): 32 ± 14 U/L
Plasma AST (mean ± SD) ([1]; gemcabene 300 mg/kg PO QD): 147 ± 122 U/L
Plasma ketone body (mean ± SD) ([1]; gemcabene 300 mg/kg PO QD): 5.68 ± 3.08 mM
number of mice with Hepatocyte ballooning score 0 (None) [1, 3]: 4
number of mice with Hepatocyte ballooning score 1 (Few balloon cells) [1, 3]: 2
number of mice with Hepatocyte ballooning score 2 (Many cells/prominent ballooning) [1, 3]: 2
number of mice with Lobular inflammation score 0 (No foci) [1, 3]: 1
number of mice with Lobular inflammation score 1 (<2 foci/200x) [1, 3]: 2
number of mice with Lobular inflammation score 2 (2-4 foci/200x) [1, 3]: 4
number of mice with Lobular inflammation score 3 (>4 foci/200x) [1, 3]: 1
number of mice with Steatosis score 1 (5-33%) [1, 3]: 8
number of mice with Hepatocyte ballooning score 0 (None) [1, 4]: 1
number of mice with Hepatocyte ballooning score 1 (Few balloon cells) [1, 4]: 4
number of mice with Hepatocyte ballooning score 2 (Many cells/prominent ballooning) [1, 4]: 3
number of mice with Lobular inflammation score 0 (No foci) [1, 4]: 2
number of mice with Lobular inflammation score 1 (<2 foci/200x) [1, 4]: 1
number of mice with Lobular inflammation score 2 (2-4 foci/200x) [1, 4]: 5
number of mice with Steatosis score 1 (5-33%) [1, 4]: 8
number of mice with Hepatocyte ballooning score 0 (None) [1, 5]: 4
number of mice with Hepatocyte ballooning score 1 (Few balloon cells) [1, 5]: 3
number of mice with Hepatocyte ballooning score 2 (Many cells/prominent ballooning) [1, 5]: 1
number of mice with Lobular inflammation score 0 (No foci) [1, 5]: 2
number of mice with Lobular inflammation score 1 (<2 foci/200x) [1, 5]: 2
number of mice with Lobular inflammation score 2 (2-4 foci/200x) [1, 5]: 4
number of mice with Steatosis score 0 (<5%) [1, 5]: 3
number of mice with Steatosis score 1 (5-33%) [1, 5]: 5
reduction in plasma fibrinogen levels compared with control (plasma fibrinogen; 30 mg/kg/day oral, 14 days): 52%
reduction in plasma fibrinogen levels compared with control (plasma fibrinogen; 100 mg/kg/day oral, 14 days (PD 72953)): 57%
% of patients experiencing a musculoskeletal adverse event [2, 6]: 0.0%
No = number of muscle skeletal adverse events [2, 6]: 0
% of patients experiencing a musculoskeletal adverse event [2, 7]: 0.0%
No = number of muscle skeletal adverse events [2, 7]: 0
% of patients experiencing a musculoskeletal adverse event [2, 8]: 0.0%
No = number of muscle skeletal adverse events [2, 8]: 0
